20 molecules from patent publication US20250115582A1, “MOLECULAR GLUE DEGRADERS AND METHODS OF USING THE SAME” (Monte Rosa Therapeutics, Inc., priority 2022, published 2025) can be followed below.

Counter-ions that a name gives are not always drawn. A value given as a limit tells only on which side of the number the result lay.

For one test, the target named is CRBN/DDB1 (Homo sapiens, UniProt Q96SW2). The test can be described thus: HTRF binding assay (thalidomide probe displacement from CRBN/DDB1). The following applies: CRBN/DDB1 2.5 nM, Cy5-Thalidomide 100 nM, 30 min; geometric mean; read-out: HTRF_Thali_Disp_DR—geo_IC50. From the text:
Binding of test compounds to CRBN/DDB1 was monitored in an HTRF assay using 1-[5-({2-[2-(2-{[2-(2,6-dioxopiperidin-3-yl)-1,3-dioxo-2,3-dihydro-1H-isoindol-4-yl]oxy}acetamido)ethoxy]ethyl}carbamoyl)pentyl]-3,3-dimethyl-2-[(1E,3E)-5-[(2E)-1,3,3-trimethyl-5-sulfo-2,3-dihydro-1H-indol-2-ylidene]penta-1,3-dien-1-yl]-3H-indol-1-ium-5-sulfonate as a fluorescent probe. In this assay, compounds displace the fluorescently labeled thalidomide-based probe bound to CRBN and fluorescence is monitored with increasing compound concentration. Assays were conducted in Greiner white 384 well HiBase plates (Cat. No 784075-25) in 10 μL total volume. A one pot detection solution of CRBN/DDB1 (2.5 nM), anti-His Terbium Cryptate Gold (1×, PerkinElmer Cat. #: 61HI2TLB), and Cy5-Thalidomide (100 nM, Tenova Cat.: T52461) was prepared in 20 mM HEPES, 20 mM NaCl, 0.2 mM TCEP, 0.2 mM EDTA, and 0.005% Tween20 was dispensed to each assay plate. Test compounds were stored in dry, ambient temperatures at 10 mM. A 10-point, 1:3 dilution series was prepared from 10 mM stock concentrations in Echo-compatible LDV plates. 10 nL of each compound dilution series was dispensed into assays wells using an Echo 650 (Labcyte inc. USA). 10 nL of 10 mM lenalidomide (Selleckchem Cat no. S1029) was transferred into the active-control wells for the assay and 10 nL of DMSO was transferred into the negative control wells. The assay was then allowed to incubate for 30 min at ambient temperature after transferring the test compounds. Plate measurements were taken on a Pherastar FSX (BMG Labtech, Germany) using the HTRF Red filter (Ex. 337 nm, eml: 620 nm, em2: 665 nm) (Flashes: 50, Integration time: 60-400 μs, Z-height: 10 mm, Ratio-multiplier: 10,000). Analysis, HTRF ratio and IC50 values were derived using KNIME analytics (KNIME Zurich) transformation and fitting within Collaborative Drug Discovery (Collaborative Drug Discovery USA) using a 4-parameter logistic fit. HTRF ratio calculation was performed using the following formula: […]
where em665nm represents the measured emission at 665 nm upon excitation at 337 nm and em620nm the measured emission at 620 nm upon excitation at 337 nm. The 4 parameter logistic fitting model was performed using the following formula: […]
where Y represents the HTRF ratio response (as defined previously), X the compound concentration in μM, Ymin the minimum response plateau, Ymax the maximum response plateau, IC50 the concentration of agonist that gives a response half way between Ymin and Ymax and HillSlope the steepness of the family of curves. No fitting model constraints was applied on Ymin, or Ymax whilst IC50>0 and −0.5>HillSlope>−3
Ki values were derived from the geometric mean of the IC50 values using the Cheng-Prusoff transformation:
where [L] represents the concentration of fluorescent probe in μM, Kd the affinity (binding constant) of the fluorescent probe in units of μM and IC50 the concentration of agonist that gives a response halfway between Ymin and Ymax (as described in 1.2.1)
Analysis and IC50 values were derived using KNIME analytics (KNIME, Zurich) transformation and fitting within Collaborative Drug Discovery (Collaborative Drug Discovery, USA) as described in 1.2.1. Ki values were derived from the geometric mean of the IC50 values using the Cheng-Prusoff transformation as described in 2.2.2. Data was visualized in GraphPad Prism 8.1.2 (GraphPad, USA) and reported as mean and standard deviation. Microsoft Office Excel 2012 (Redmond, WA) was used for calculation of mean and standard deviation.
IC50 data are reported in Table 3 for compounds in Table 1. In Table 3 below, According to the code, A represents a IC50 value of ≤0.1 μM, B represents a IC50 value≥0.1 μM and ≤1 μM, C represents an IC50 value>1 μM.

A further test concerns the target T1, CK1α (Homo sapiens, UniProt P48729+Q96SW2).
T1 construct: HEK293 clonal line with CRISPR KI HiBiT tag on CSNK1A1; host or cells: HEK293 clonal line, CRISPR HiBiT knock-in at CSNK1A1, stably expressing LgBiT
The test is described as follows: CK1α NanoBiT assay (HiBiT-tagged CSNK1A1 in HEK293 clonal line). The following applies: HEK293 HiBiT-CSNK1A1/LgBiT cells, 24 h incubation, luminescence. The class given is cell-based. On the procedure: HEK293 clonal line with CRISPR KI HiBiT tag on CSNK1A1 and stably expressing LgBiT protein was obtained from Promega (Madison, WI). Cells were plated at 5000 cells per well using Multiflo (BioTek) in 384-well white solid bottom plates (Corning, 3570BC) in […] volume in DMEM media (DMEM, high glucose, HEPES, no phenol red (ThermoFisher Scientific, 21063029)) containing 10% FBS (Corning, 35-075-CV), 1% Penicillin/Streptomycin ((ThermoFisher Scientific, 15140-122), and 0.2% Endurazine (Nano-Glo Endurazine Live Cell Substrate (Promega, N2571)). Cells were incubated for 16 hours at 37C, 5% CO2. Depending on experiment 25 or 75 nL of a compound at 10 mM were added into the plate using an Echo®650 liquid handler (Labcyte) to achieve final concentration of […] in wells. Cells were incubated at 37° C., 5% CO2 for 24 hours followed by signal was read on Pherastar FSX using “LUM plus” optic module.
Data analysis was performed using Scinamic (Scinamic, Cambridge, MA).
Luminescence response (R) was calculated by the formula: response=100*(S−N)/(P−N), where S is the signal of the well, N and P the mean negative and positive control values, respectively, of the same plate. The luminescence response was then fitted in Scinamic using a 3-parameter agonist logistic fit (hillslope=1, EC50>0, top/bottom unconstrained).
DC50 data are reported in Table 2 for compounds in Table 1. In Table 2 below, According to the code, A represents a DC50 value of ≤0.1 μM, B represents a DC50 value>0.1 μM and ≤1 μM, C represents an DC50 value>1 μM.

T1 sequence (P48729 whole entry): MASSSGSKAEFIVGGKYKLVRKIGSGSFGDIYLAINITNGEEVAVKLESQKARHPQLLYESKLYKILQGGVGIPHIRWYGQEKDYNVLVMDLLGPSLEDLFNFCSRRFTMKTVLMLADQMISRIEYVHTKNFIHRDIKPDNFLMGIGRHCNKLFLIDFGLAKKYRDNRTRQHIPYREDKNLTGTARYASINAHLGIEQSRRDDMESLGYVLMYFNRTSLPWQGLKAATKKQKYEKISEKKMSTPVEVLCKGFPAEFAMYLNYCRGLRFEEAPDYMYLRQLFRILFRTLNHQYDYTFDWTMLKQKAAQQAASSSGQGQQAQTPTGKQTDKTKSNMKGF
T1 sequence (Q96SW2 whole entry): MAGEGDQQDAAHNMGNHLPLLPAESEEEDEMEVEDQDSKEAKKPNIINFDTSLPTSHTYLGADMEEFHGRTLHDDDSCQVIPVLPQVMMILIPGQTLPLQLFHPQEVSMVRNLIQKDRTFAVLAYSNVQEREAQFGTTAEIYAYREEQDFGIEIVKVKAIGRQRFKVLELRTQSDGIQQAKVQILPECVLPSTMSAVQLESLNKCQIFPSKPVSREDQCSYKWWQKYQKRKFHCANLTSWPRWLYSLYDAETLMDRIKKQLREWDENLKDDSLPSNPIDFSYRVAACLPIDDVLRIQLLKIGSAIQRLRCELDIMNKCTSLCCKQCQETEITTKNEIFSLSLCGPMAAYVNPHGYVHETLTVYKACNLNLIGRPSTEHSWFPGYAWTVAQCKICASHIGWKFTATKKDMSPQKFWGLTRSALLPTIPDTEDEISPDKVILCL
T1 sequence (Q16531 2-1140 partner limits assumed): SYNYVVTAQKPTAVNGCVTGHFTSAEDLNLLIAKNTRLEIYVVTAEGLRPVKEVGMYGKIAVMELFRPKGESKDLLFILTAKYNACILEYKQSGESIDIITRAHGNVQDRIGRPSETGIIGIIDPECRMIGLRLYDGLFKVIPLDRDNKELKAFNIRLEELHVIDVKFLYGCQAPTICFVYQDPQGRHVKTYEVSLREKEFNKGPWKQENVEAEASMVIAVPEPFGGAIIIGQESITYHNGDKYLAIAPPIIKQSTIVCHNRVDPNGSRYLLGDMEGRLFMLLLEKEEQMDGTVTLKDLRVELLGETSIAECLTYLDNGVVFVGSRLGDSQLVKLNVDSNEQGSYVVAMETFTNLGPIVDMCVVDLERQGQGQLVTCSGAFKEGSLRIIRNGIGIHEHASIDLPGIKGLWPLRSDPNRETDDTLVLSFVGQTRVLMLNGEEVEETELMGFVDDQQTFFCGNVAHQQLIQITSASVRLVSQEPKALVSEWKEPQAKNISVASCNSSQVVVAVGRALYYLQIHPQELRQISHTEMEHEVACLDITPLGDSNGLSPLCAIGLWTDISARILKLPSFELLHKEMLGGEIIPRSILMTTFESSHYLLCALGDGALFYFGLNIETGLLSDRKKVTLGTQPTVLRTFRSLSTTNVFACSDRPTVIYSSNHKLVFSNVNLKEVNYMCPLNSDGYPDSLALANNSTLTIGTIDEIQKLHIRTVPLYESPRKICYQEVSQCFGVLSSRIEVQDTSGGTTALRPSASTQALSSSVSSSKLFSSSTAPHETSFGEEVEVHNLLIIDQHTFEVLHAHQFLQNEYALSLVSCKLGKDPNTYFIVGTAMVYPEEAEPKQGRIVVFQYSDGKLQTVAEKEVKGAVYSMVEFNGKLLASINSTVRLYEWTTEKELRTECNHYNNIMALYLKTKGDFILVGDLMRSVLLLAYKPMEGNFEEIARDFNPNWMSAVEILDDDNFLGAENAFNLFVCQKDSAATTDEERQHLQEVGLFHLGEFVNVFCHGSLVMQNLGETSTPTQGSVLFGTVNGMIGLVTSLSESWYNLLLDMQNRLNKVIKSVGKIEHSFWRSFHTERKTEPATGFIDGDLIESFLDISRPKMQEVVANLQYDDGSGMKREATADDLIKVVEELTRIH
Chain of CRBN/DDB1 (Q96SW2 whole entry): as the sequence (Q96SW2 whole entry) above
Chain of CRBN/DDB1 (Q16531 whole entry partner): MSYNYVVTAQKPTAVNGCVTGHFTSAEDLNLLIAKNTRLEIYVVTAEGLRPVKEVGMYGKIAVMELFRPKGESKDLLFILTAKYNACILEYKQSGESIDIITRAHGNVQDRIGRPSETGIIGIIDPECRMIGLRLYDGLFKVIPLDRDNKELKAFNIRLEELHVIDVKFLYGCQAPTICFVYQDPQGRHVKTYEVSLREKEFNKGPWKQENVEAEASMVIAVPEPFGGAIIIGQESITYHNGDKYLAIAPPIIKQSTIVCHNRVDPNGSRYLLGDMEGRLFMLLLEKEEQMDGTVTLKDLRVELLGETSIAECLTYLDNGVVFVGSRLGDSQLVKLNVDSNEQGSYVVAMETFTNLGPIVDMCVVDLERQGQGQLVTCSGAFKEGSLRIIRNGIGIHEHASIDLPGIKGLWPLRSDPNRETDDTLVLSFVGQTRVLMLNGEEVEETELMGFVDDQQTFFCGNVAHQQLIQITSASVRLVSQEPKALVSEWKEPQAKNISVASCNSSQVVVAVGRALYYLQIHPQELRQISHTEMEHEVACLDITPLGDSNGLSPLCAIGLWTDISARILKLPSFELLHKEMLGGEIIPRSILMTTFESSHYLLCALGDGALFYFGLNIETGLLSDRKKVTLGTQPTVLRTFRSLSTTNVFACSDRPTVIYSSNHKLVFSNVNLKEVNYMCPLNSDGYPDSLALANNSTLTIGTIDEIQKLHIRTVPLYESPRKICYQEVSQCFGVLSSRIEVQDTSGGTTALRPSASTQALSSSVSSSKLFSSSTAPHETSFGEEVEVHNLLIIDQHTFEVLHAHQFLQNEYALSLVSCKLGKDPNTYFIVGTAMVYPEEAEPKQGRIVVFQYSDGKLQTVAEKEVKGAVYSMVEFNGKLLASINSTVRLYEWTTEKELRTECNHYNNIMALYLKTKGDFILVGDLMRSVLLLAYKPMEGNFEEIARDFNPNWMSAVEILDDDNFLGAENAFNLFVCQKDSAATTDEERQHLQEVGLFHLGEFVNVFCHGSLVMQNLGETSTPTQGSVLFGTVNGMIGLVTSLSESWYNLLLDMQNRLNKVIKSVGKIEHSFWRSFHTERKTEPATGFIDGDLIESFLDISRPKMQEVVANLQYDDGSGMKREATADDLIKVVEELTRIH

With `O=C1CCC(N2Cc3cc(NC(=O)C4CC(c5ccccc5)C4)ccc3C2=O)C(=O)N1` (stereo not shown) [Compound 117, N-(2-(2,6-dioxopiperidin-3-yl)-1-oxoisoindolin-5-yl)-3-phenylcyclobutanecarboxamide], the IC50 at CRBN/DDB1 lay in the range of 100 to 1000 nM. The molecule further gave a DC50 at CK1α of less than 0.1 µM.
Take `N#Cc1ccccc1C(=O)Nc1ccc2c(c1)CN(C1CCC(=O)NC1=O)C2=O` (stereo not shown) [Compound 118, 2-cyano-N-(2-(2,6-dioxopiperidin-3-yl)-1-oxoisoindolin-5-yl)benzamide]: the IC50 on CRBN/DDB1 lay within 100 to 1000 nM. Moreover, on CK1α, the DC50 was greater than 1 µM.
Take `Cn1ccnc1C(=O)Nc1ccc2c(c1)CN(C1CCC(=O)NC1=O)C2=O` (stereo not shown) [Compound 119, N-(2-(2,6-dioxopiperidin-3-yl)-1-oxoisoindolin-5-yl)-1-methyl-1H-imidazole-2-carboxamide]: the IC50 at CRBN/DDB1 is 100 to 1000 nM. The same molecule displayed a DC50 at CK1α greater than 1 µM.
`O=C1CCC(N2Cc3cc(NC(=O)c4ncco4)ccc3C2=O)C(=O)N1` (stereo not shown) [Compound 120, N-(2-(2,6-dioxopiperidin-3-yl)-1-oxoisoindolin-5-yl)oxazole-2-carboxamide]: the IC50 on CRBN/DDB1 fell in the range of 100 to 1000 nM. At CK1α, this molecule displayed a DC50 of less than 0.1 µM.
For `O=C1CCC(N2Cc3cc(NC(=O)c4ccc(Cl)c(F)c4)ccc3C2=O)C(=O)N1` (stereo not shown) [Compound 121, 4-chloro-N-(2-(2,6-dioxopiperidin-3-yl)-1-oxoisoindolin-5-yl)-3-fluorobenzamide], the IC50 at CRBN/DDB1 fell in the range of 100 to 1000 nM. The molecule further came in with a DC50 at CK1α of less than 0.1 µM.
With `O=C1CCC(N2Cc3cc(NC(=O)c4ccc(C(F)(F)F)cc4)ccc3C2=O)C(=O)N1` (stereo not shown) [Compound 122, N-(2-(2,6-dioxopiperidin-3-yl)-1-oxoisoindolin-5-yl)-4-(trifluoromethyl)benzamide], the IC50 on CRBN/DDB1 was in the range of 100 to 1000 nM. This molecule also came in with a DC50 on CK1α of less than 0.1 µM.
On to `Cc1ccc(C(=O)Nc2ccc3c(c2)CN(C2CCC(=O)NC2=O)C3=O)cn1` (stereo not shown) [Compound 123, N-(2-(2,6-dioxopiperidin-3-yl)-1-oxoisoindolin-5-yl)-6-methylnicotinamide], for which the IC50 at CRBN/DDB1 is 100 to 1000 nM. On CK1α, this molecule returned a DC50 of 0.1 to 1 µM.
`O=C1CCC(N2Cc3cc(NC(=O)c4cccc5c4CC(=O)N5)ccc3C2=O)C(=O)N1` (stereo not shown) [Compound 124, N-(2-(2,6-dioxopiperidin-3-yl)-1-oxoisoindolin-5-yl)-2-oxoindoline-4-carboxamide]: the IC50 at CRBN/DDB1 was no more than 100 nM. On CK1α, this molecule yielded a DC50 of 0.1 to 1 µM.
Take `O=C1CCC(N2Cc3cc(NC(=O)c4cccc(C(F)(F)F)c4)ccc3C2=O)C(=O)N1` (stereo not shown) [Compound 125, N-(2-(2,6-dioxopiperidin-3-yl)-1-oxoisoindolin-5-yl)-3-(trifluoromethyl)benzamide]: the IC50 on CRBN/DDB1 fell in the range of 100 to 1000 nM. This molecule also yielded a DC50 at CK1α of less than 0.1 µM.
For the molecule `O=C1CCC(N2Cc3cc(NC(=O)c4ccc(F)cc4)ccc3C2=O)C(=O)N1` (stereo not shown) [Compound 126, N-(2-(2,6-dioxopiperidin-3-yl)-1-oxoisoindolin-5-yl)-4-fluorobenzamide], the IC50 on CRBN/DDB1 lay within 100 to 1000 nM. This molecule registered a DC50 at CK1α of less than 0.1 µM.
For `Cc1ccc(C(=O)Nc2ccc3c(c2)CN(C2CCC(=O)NC2=O)C3=O)cc1` (stereo not shown) [Compound 127, N-(2-(2,6-dioxopiperidin-3-yl)-1-oxoisoindolin-5-yl)-4-methylbenzamide], in that order: 100 to 1000 nM and less than 0.1 µM.
With `O=C1CCC(N2Cc3cc(NC(=O)c4ccccc4C4CCCC4)ccc3C2=O)C(=O)N1` (stereo not shown) [Compound 128, 2-cyclopentyl-N-(2-(2,6-dioxopiperidin-3-yl)-1-oxoisoindolin-5-yl)benzamide formate], on CRBN/DDB1, the IC50 was 100 to 1000 nM. Also, the DC50 at CK1α was greater than 1 µM.
On the same counts, the results for `O=C1CCC(N2Cc3cc(NC(=O)c4cccc5c4CCC5)ccc3C2=O)C(=O)N1` (stereo not shown) [Compound 129, N-(2-(2,6-dioxopiperidin-3-yl)-1-oxoisoindolin-5-yl)-2,3-dihydro-1H-indene-4-carboxamide] are 100 to 1000 nM and less than 0.1 µM.
On the same counts, the results for `N#Cc1ccc(C(=O)Nc2ccc3c(c2)CN(C2CCC(=O)NC2=O)C3=O)cc1` (stereo not shown) [Compound 130, 4-cyano-N-(2-(2,6-dioxopiperidin-3-yl)-1-oxoisoindolin-5-yl)benzamide] are 100 to 1000 nM and 0.1 to 1 µM.
Take `O=C1CCC(N2Cc3cc(NC(=O)c4ccc(Cl)cc4F)ccc3C2=O)C(=O)N1` (stereo not shown) [Compound 131, 4-chloro-N-(2-(2,6-dioxopiperidin-3-yl)-1-oxoisoindolin-5-yl)-2-fluorobenzamide]: the IC50 at CRBN/DDB1 was in the range of 100 to 1000 nM. At CK1α, this molecule displayed a DC50 of less than 0.1 µM.
For `Cc1ccccc1C(=O)Nc1ccc2c(c1)CN(C1CCC(=O)NC1=O)C2=O` (stereo not shown) [Compound 132, N-(2-(2,6-dioxo-3-piperidyl)-1-oxo-isoindolin-5-yl)-2-methyl-benzamide], in that order: 100 to 1000 nM and 0.1 to 1 µM.
For `O=C1CCC(N2Cc3cc(NC(=O)c4ccccn4)ccc3C2=O)C(=O)N1` (stereo not shown) [Compound 133, N-(2-(2,6-dioxopiperidin-3-yl)-1-oxoisoindolin-5-yl)], in that order: 100 to 1000 nM and 0.1 to 1 µM.
As for `CC(C)Cc1ccccc1C(=O)Nc1ccc2c(c1)CN(C1CCC(=O)NC1=O)C2=O` (stereo not shown) [Compound 134, N-(2-(2,6-dioxopiperidin-3-yl)-1-oxoisoindolin-5-yl)-2-isobutylbenzamide], the IC50 on CRBN/DDB1 lay within 100 to 1000 nM. Besides, the DC50 at CK1α fell in the range of 0.1 to 1 µM.
On the same counts, the results for `N#Cc1cccc(C(=O)Nc2ccc3c(c2)CN(C2CCC(=O)NC2=O)C3=O)c1` (stereo not shown) [Compound 136, 3-cyano-N-(2-(2,6-dioxopiperidin-3-yl)-1-oxoisoindolin-5-yl) benzamide] are 100 to 1000 nM and 0.1 to 1 µM.
For `O=C1CCC(N2Cc3cc(NC(=O)c4ccccc4C(F)(F)F)ccc3C2=O)C(=O)N1` (stereo not shown) [Compound 137, N-(2-(2,6-dioxopiperidin-3-yl)-1-oxoisoindolin-5-yl)-2-(trifluoromethyl)benzamide], the IC50 on CRBN/DDB1 was 100 to 1000 nM. In addition, the DC50 on CK1α was less than 0.1 µM.
